From PMC6968383, “Design, synthesis, in vitro and in vivo evaluation of benzylpiperidine-linked 1,3-dimethylbenzimidazolinones as cholinesterase inhibitors against Alzheimer’s disease” (Journal of Enzyme Inhibition and Medicinal Chemistry, 2019)

How the values were obtained:
[1] = target: T1, AChE (EC 3.1.1.7) from human (Homo sapiens, UniProt P22303); assay: human AChE inhibition assay, Ellman's method; type: biochemical; conditions: for IC50: human AChE, mean ± SEM, read-out: huAChE IC50
T1 construct: purchased Sigma-Aldrich
Description: (§1) ; The inhibitory activities of the target compounds towards AChE (from Electrophorus electricus (electric eeAChE, Sigma-Aldrich) and horse serum BChE (eqBChE, Sigma-Aldrich) or human AChE – huAChE; human BuChE – huBuChE (huAChE, huBuChE, Sigma-Aldrich) were measured by Ellman’s method. In 96-well plates, a mixture of phosphate buffer (0.1 M, pH 8.0, […]), 5,5′-dithiobis-2-nitrobenzoic acid (DTNB, 60 µL), acetylcholinestrase or butyrylcholinesterase (20 µL, 5 IU/mL) and different concentration of the compound solution (30 µL) was pre-incubated for 5 min followed by the addition of the substrate (acetylthiocholine iodide or butyrylthiocholine iodide, 20 µL). Changes in absorbance were measured at 412 nm by using microplate reader (Thermo, Varioskan Flash 3001, USA). The measurement of each concentration for each compound was detected in triplicate. GraphPad Prism 6.0 (GraphPad Software, Inc., La Jolla, CA) was used for data processing. The inhibition curve was fitted by plotting percentage enzyme activity (100% for the reference) versus the logarithm of the concentration of tested compound. The half-maximal inhibitory concentration (IC50) values were calculated according to the inhibition curve and the data were shown in the layout of mean ± SEM by GraphPad Prism 6.0.

HepG2 cells = assay: In vitro hepatotoxicity on HepG2 cell line (MTT); type: cell-based; conditions: 5, 15, 50 µM, 24 h, compared to donepezil
Description: PC12 cell and HepG2 cell (human hepatocellular liver carcinoma cell line purchased from Institute of Materia of Chinese Academy of Medical Science), were grown in DMEM supplemented with 10% FBS at 37 °C in a humidified atmosphere containing 5% CO2. For the experiments, cells (6 × 10^3 cells/well) were seeded in 96-well plate in complete medium. […]

liver = assay: Liver histopathological study (HE staining); conditions: 36 h after administration, compared to control group
From the text: Figure 7. […] HE staining, original magnification ×200.

[2] = DPPH radical scavenging activity; conditions: at 1 mM
Description: Compounds 15b and 15j were selected to be evaluated for their 1,1-diphenyl-2-picrylhydrazyl radical scavenging activity (DPPH) compared with trolox as reference compound[12].
(§2) Corresponding Authors: clarissa0710@163.com (Y. Chen); sunhaopeng@163.com (H. P.
(§3) 1.1. Inhibition of self-induced Aβ1–42 aggregation
(§4) Inhibitory effect of the compounds on self -induced Aβ1–42 aggregation was determined through a thioflavin T (ThT)-(T3516, Sigma-Aldrich) binding assay.
(§5) Firstly, aliquots of 2 μL of Aβ 1–42 (AS-64129–05 Anaspec Inc.) containing 2 mg/mL HFIP (1,1,1,3,3,3-hexafluoro-2-propanol, 52517 (Sigma-Aldrich) were stocked in DMSO).
(§6) Then, they were diluted with 0.215M sodium phosphate buffer (pH 8.0) to the final concentration of 500 μM. Test compounds were dissolved in DMSO and then prepared at a concentration of 50 μM by the buffer. Resveratrol was used as a positive control. […]
(§7) Fluorescence intensity was read (excitation wavelength 450 nm, emission wavelength 485 nm) on a microplate reader (Thermo, Varioskan Flas h 3001, USA).
(§8) The calculation of the inhibitory rate of Aβ 1–42 self-induced aggregation was performed using the following equation: (1 -IFi/IFc) × 100 %. IFi and IFc were the fluorescence intensities measured in the presence and absence of inhibitors, respe ctively, after subtracting the background fluorescence of the 5mM ThT solution. Each compound was measured in triplicate. […]

[3] = target: T2, BChE (EC 3.1.1.8) from human (Homo sapiens, UniProt P06276); assay: human BChE inhibition assay, Ellman's method; type: biochemical; conditions: mean ± SEM, read-out: huBChE IC50
T2 construct: purchased Sigma-Aldrich
Description: as §1

[4] = test system: scopolamine-induced cognition impairment in ICR mice; assay: Morris water maze test, scopolamine-induced cognition impairment; type: in vivo; conditions: oral 15 mg kg−1, scopolamine 1 mg kg−1 ip, probe trial on sixth day, mean ± SEM n = 6
Description: The test included 5 days of learning and memory training and a probe trial on the sixth day.
Scopolamine hydrobromide was supplied by Aladdin Reagents (H1507073, Shanghai, China).
Cognitive function was evaluated by the Morris water maze analysis-management system (SMART 3.0, Panlab, Madrid, Spain), according to the method previously described[30].The maze was placed in a lit room with visual cues at 25 °C. An escape platform (10 cm diameter) was located in the centre of one quadrant of the circular pool (120 cm diameter, 60 cm height) with a depth of 40 cm water. The behavioural study of each mouse included 5 days of learning and memory training and a probe trial on day 6. The animal starting positions faced to the pool wall, and were pseudorandomised for each trial. For the cognitive evaluation, each mouse was individually evaluated on both visible-platform (days 1–2) and hidden-platform (days 3–5) versions of the water maze. All mice received nonspatial pretraining during the first two training days, which prepared them for the subsequent spatial learning test. During the two days, mice were trained to find the platform that was labelled by a small flag (5 cm tall). The hidden platform version was used to determine the retention of memory to find the platform. During the hidden-platform training trials, the escape platform was placed 1 cm below the surface of the water. On each day, the animal was subjected to two trials, each of which lasted for 90 s. The time for the mouse to find the platform (a successful escape) was recorded. […] On the last day (day 6), the platform was removed from its location and the animals were given a probe trial in which they had 90 s to search for the platform. The time taken to reach the missing platform and the number of times the animals crossed the platform location were recorded.
Data for the time of escape latency, the trajectory travelled, and the number of platform location crossings were recorded by SMART 3.0, Panlab, Madrid, Spain and processed by GraphPad Prism 6.0.

Aβ1–42 = target: T3, Aβ1–42 (Homo sapiens, UniProt P05067); assay: Inhibition of self-induced Aβ1–42 aggregation (thioflavin T); type: biochemical; conditions: under 50 µM, ThT fluorometric assay
T3 construct: self-induced Aβ1–42 aggregation; purchased Anaspec Inc. AS-64129–05
Description: Compounds 15b and 15j were evaluated for their inhibitory capacity on self-induced Aβ1–42 aggregation based on a thioflavin T-based fluorometric assay. […]
as §2, §3, §4, §5, §6, §7, §8

T1 sequence (P22303 32-614): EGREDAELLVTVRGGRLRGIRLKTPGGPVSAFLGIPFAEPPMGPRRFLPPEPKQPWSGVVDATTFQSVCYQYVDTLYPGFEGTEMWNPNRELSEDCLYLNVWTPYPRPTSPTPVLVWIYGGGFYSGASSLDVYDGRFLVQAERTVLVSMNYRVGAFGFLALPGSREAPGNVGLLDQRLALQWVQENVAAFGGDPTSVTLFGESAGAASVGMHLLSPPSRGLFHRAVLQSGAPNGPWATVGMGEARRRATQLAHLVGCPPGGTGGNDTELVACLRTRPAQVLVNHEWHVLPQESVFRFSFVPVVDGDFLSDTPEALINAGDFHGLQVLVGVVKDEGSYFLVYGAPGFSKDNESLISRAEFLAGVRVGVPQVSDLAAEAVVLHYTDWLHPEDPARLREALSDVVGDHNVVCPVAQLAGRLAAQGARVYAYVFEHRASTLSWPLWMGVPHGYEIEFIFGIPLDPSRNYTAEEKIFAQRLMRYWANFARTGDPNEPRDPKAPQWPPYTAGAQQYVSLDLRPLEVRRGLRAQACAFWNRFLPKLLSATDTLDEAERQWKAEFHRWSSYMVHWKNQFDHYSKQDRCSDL
T2 sequence (P06276 29-602): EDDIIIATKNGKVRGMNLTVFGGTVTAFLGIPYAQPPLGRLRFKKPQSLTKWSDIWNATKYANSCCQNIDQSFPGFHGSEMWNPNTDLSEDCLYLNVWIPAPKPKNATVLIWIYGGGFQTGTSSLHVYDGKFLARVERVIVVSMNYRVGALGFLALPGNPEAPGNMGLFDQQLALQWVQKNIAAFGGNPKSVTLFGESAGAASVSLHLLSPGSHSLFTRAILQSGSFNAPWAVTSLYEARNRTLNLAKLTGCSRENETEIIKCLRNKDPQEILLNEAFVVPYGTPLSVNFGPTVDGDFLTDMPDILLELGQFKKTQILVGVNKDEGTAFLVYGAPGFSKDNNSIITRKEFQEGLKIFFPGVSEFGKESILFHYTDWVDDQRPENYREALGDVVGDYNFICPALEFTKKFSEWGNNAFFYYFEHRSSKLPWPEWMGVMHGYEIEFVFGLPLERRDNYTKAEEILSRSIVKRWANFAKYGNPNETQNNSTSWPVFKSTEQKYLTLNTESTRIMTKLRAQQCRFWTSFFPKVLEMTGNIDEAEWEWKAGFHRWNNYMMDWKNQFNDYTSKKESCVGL
T3 sequence (P05067 672-713): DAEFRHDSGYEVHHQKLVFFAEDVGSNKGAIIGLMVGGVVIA

Row | Compound | IC50 [1] [nM] | toxicity on HepG2 cell viability (HepG2 cells) | morphologic changes in liver (liver) | DPPH inhibitory rate [2] [%] | IC50 [3] [nM] | Distance to target [4] [cm] | Latency to target [4] [s] | inhibition of self-induced Aβ1–42 aggregation (Aβ1–42) | SI (selectivity index = AChE IC50/BChE IC50) ([1]; huAChE IC50 / huBChE IC50)
1 | Cc1ccccc1CN1CCC(CNS(=O)(=O)c2ccc3c(c2)n(C)c(=O)n3C)CC1 [Compound 15b, 1,3-dimethyl-N-((1–(2-methylbenzyl)piperidin-4-yl)methyl)-2-oxo-2,3-dihydro-1H-benzo[d]imidazole-5-sulphonamide] | 1490 ± 430 | low toxicity on cell viability | did not result in remarkable morphologic changes in liver | 12.2 | 1330 ± 550 | 252.32 ± 8.42 | 9.29 ± 0.31 | no inhibitory activities | –
2 | Cn1c(=O)n(C)c2cc(S(=O)(=O)NCC3CCN(Cc4cccc(Br)c4)CC3)ccc21 [Compound 15j, N-((1–(3-bromobenzyl)piperidin-4-yl)methyl)-1,3-dimethyl-2-oxo-2,3-dihydro-1H-benzo[d]imidazole-5-sulphonamide] | 1250 ± 480 | low toxicity on cell viability | did not result in remarkable morphologic changes in liver | 6.3 | 660 ± 220 | 350.27 ± 16.59 | 12.85 ± 0.72 | no inhibitory activities | 1.89
